From patent US5750141A, “Administration of vaso-active agent and therapeutic agent” (The University of Queensland, priority 1993, dated 1998)
Like-named read-outs stand apart in the source and are kept apart here.

Columns and labels:
[1] = postmortem conditions; cited from earlier work
[2] = nitroglycerine; cited from earlier work
[3] = for Change in salicylic acid clearance from solutions applied to the dermis: FIG. 1
Experimental: In vivo dermal penetration and local tissue uptake studies: The rats were lightly anaesthetised by pentobarbitone (35mg/kg) and their body temperature maintained at 37° C. by placing them on a heating pad. The hair from the 4 cm^2 dorsum area were removed by electric clippers and the epidermis removed by means of an electrodermatome set at a thickness of 80 microns. A dermal absorption cell was adhered to the exposed rat dermis and warmed to 37° C. by means of an external heating device.
Solution of solute spiked with corresponding labelled substance and containing an appropriate concentration of phenylephrine, previously warmed to 37° C., was introduced into the dermal absorption cell and the solution stirred by a glass stirrer driven by an external motor. Samples were removed from the donor cell at predetermined times and placed in preweighed scintillation vials. The glass cell was removed from the rat skin at the end of two hour dermal perfusion study and the application area wiped dry with blotting paper. A blood sample was then taken from the tail vein and the animals sacrificed with overdoes of anaesthetic ether. Immediately thereafter the tissues below the treated site i.e. skin, subcutaneous tissue, fascia, muscle lining or superficial muscle, muscle, fat pad and deep muscle were removed from dissection and placed in preweighed scintillation vials. Similarly, the tissues below the contralateral side were also removed. Tissue and plasma samples were stored at -20° C. prior to analysis. In vivo dermal penetration and local tissue uptake studies (sacrificed animals): The rats were initially anaesthetised by intraperitoneal injection of pentobarbitone (35 mg/kg) and after removing epidermis as described above, were sacrificed by overdose of ether. Dermal perfusion and tissue uptake studies were then conducted in postmortem rats.
The phenylephrine induced reduction in blood flow to dermis was determined by monitoring the dermal clearance of tritiated water in presence of phenylephrine.
Aqueous samples removed from the glass cells in in vivo dermal perfusion studies were directly mixed with 5 ml of liquid scintillation cocktail BCS and counted on liquid scintillation counter. The tissue samples were solubilised with 50 μl of water and 1 ml of tissue solubilizer NCS at 50° C. for 6-8 hrs.

[4] = type: in vivo, rat (male Wistar)
[5] = reductions in blood flow; cited from earlier work
[6] = set-up: species or system rat (male Wistar)
Experimental: The following experiment was designed to determine the effect of changes in tissue blood flow (perfusion) on the transdermal absorption and subsequent tissue distribution of 3H-water.
Hindlimb perfusions: Briefly, rats (malc Wistar 280-340 g) were anaesthetised with sodium pentobarbitone 60 mg/ig i.p., the abdomen opened and the right femoral artery cannulated (PESO) via the aorta. A second cannula (PE205) was placed in the dorsal vena cava, and the hindlimb perfused in a humidicrib at 37° C. with oxygenated (95%O2 /5%CO2) Krebs Heinseleit Ringer (mM: NaCl 118, KCl 4.74, KH2 PO4 1.18, MgSO4.7H2 O 0 1.18 CaCl2.2H2 O 2.54, NaHCO3 25, Glucose 11.1;pH 7.4, 37° C.), containing 4% bovine serum albumin (Fraction V, Sigma). Once the perfusions were established rats were sacrificed by creating a pneumothorax and turned over so that cells could be attached to the outer thigh of the perfused limb. The pressure of the inflowing perfusate was continuously monitored, mean pressures were in the order of 30 and 40 mmHg at 4 and 8ml/min respectively. The perfused preparation is stable for up to 2 hrs, as validated by testing inflowing and outflowing perfusate samples for pH, dissolved oxygen concentrations, together with various enzyme and ion concentrations. The perfusion flow rates were controlled by a graduated peristaltic pump, and were measured at the beginning and end of each experiment.
Glass diffusion cells (8 cm high, 1.8 cm internal diameter, 2.54 cm^2 skin application area), were fixed to the skin on the outer thigh of the perfused hindlimb with adhesive. The application area on the hindlimb was first depilated with commercial Nair™ hair-removal cream and the epidermis removed using a dermatome before the perfusion was established. Solutions (2 ml) containing trace amounts of the radiolabelled ^3 H-water (Sigma Chemical Co, Australia), in phosphate buffered saline (pH 7.4, 37° C.) were introduced into the cell at time 0. Absorption studies were conducted for 90 minutes, after which time the cell contents were drawn out with a pipette, the cell removed and the tissues from beneath the position of the cell sequentially dissected into preweighed vials for weight determination, solubilisation and liquid scintillation counting.

[7] = type: in vivo, rat (male Wistar); remark: listed apart in the source
Experimental: Male Wistar rats (348±20 g) were anaesthetised i.p. with sodium pentobarbitone (60 mg/kg) and laid abdomen down on a heating pad (37° C.) with the left hindleg extending over the edge of the pad. The left hind foot was cleaned with cotton wool swabs soaked in a dilute solution of ethanol then dried. The foot was then immersed, to a standard position marked on the ankle joint, in 2 ml of vehicle solution (30% propylene glycol/30% ethanol/40% water) containing ^3 H-water (Sigma, Australia) with (n=3) or without (n=3) 2% GTN (David Bull Laboratories Pty Ltd. Melbourne, Australia). Solutions were left in contact with the foot for 2 hours with 10 μl samples taken at time zero and at the end of the absorption period. After 2 hrs a blood sample was taken from the tail vein and animals were sacrificed by cervical dislocation whilst still anaesthetised. The rat paws were cleaned as previously to remove any excess radiolabelled solute from the surface. Skin from the upper part of the foot, the foot pad and foot muscles were dissected from each treated and contralateral paw, placed into preweighed scintillation vials, solubilised with NCS (Amersham, Australia) and counted for radioactivity, along with the 10 μl solution samples, following the addition of the appropriate scintillation cocktail. Statistical analysis was performed using a Student unpaired t-test, with significance taken at the P<0.05 level.

[8] = topical ointment; cited from earlier work
[9] = 30° C.; Michaels et al.; cited from earlier work
[10] = 2% GTN vs vehicle, 2 hours, FIG. 5

## CN(Cc1cnc2nc(N)nc(N)c2n1)c1ccc(C(=O)N[C@@H](CCC(=O)O)C(=O)O)cc1 [methotrexate]
[1]
  Disappearance from dermal and subcutaneous sites: reduced

## O=[N+]([O-])OCC(CO[N+](=O)[O-])O[N+](=O)[O-] [nitroglycerine]
[2]
  Water solubility: 1300 µg/mL

## O=C(O)c1ccccc1O [salicylic acid]
[3]; increasing phenylephrine concentration up to 0.05%
  Change in salicylic acid clearance from solutions applied to the dermis: decreased up to phenylephrine concentration of 0.05%
[3]; phenylephrine 0.1%
  Change in salicylic acid clearance from solutions applied to the dermis: no further decrease
[4]; PE concentration of 0.1%, FIG. 2a-h
  Plasma levels and levels in contralateral tissues: sudden increase
[4]; PE concentrations above 0.01%, FIG. 2a-g
  Concentration in underlying tissues (fraction of initial concentration): approach a constant value
[4]; PE up to 0.01%, underlying tissues except for fat pad, FIG. 2a-g
  Concentration in underlying tissues (fraction of initial concentration): increase with increase in concentration of PE up to 0.01%
[4]; increasing phenylephrine concentration, FIG. 2h
  Systemic salicylic acid blood levels: gradual decline
[4]; increasing phenylephrine concentrations, FIG. 2a-g
  Concentration in contralateral tissues: decreased with increasing phenylephrine concentrations
[4]; phenylephrine 0.01%
  Concentration in deep muscle: maximum concentrations
[4]; phenylephrine above 0.01%
  Concentration in deep muscle: decreases

## O [Water]
[5]
  Absorption from dermal and subcutaneous sites: significant reductions in absorption
[3]; Control (no phenylephrine), anaesthetised rats, 37° C., two hour study
  Dermal clearance (Mean ± S.D.): 1.10 ± 0.24 mL/h
[3]; Phenylephrine (1:5000)
  Dermal clearance (Mean ± S.D.): 0.40 ± 0.02 mL/h
[3]; Phenylephrine (1:20000)
  Dermal clearance (Mean ± S.D.): 0.53 ± 0.05 mL/h
[3]; Sacrificed animals
  Dermal clearance (Mean ± S.D.): 0.36 ± 0.02 mL/h
[6]; 4 vs 8 ml/min
  Dependence of tissue concentrations on perfusion flow rate: great dependence on perfusion flow rate
[6]; 8 ml/min vs 4 ml/min, p<0.05
  Tissue concentration of water in dermis (2 mm) and superficial muscle layer (5 mm): statistically lower
[6]; lower flow rate (4 ml/min)
  Tissue concentration of water in the deeper muscle layers: higher concentrations
[6]; perfusion flow rate raised from 4 ml/min to 8 ml/min, p<0.05, 90 minutes, pH 7.4, 37° C.
  Increase in clearance from the dermal cell: 31%
[4]; in the presence of phenylephrine
  Concentration in plasma and contralateral tissues: decreased
[4]; in the presence of phenylephrine, FIGS. 3 & 4
  Concentration in tissues below the application area: increased
[7]; 2% GTN vs vehicle
  Concentration of water in upper skin and muscle tissues of the contralateral limb: significant increase
[7]; [10]
  Concentration in the outer skin or foot pad of the rat paw: no significant change
  Concentration of water in the deeper foot muscles: highly significant increase
[7]; 2% GTN vs vehicle, 2 hours, P=0.046, FIG. 5
  Plasma concentration of water: significant increase
[7]; topical GTN, anaesthetised animals
  Underlying tissue concentration of topically coadministered 3H-water: significantly increase

## CCCCC[C@H](O)/C=C/[C@@H]1[C@H]2C/C(=C/CCCC(=O)O)O[C@H]2C[C@H]1O [Prostaglandin I2 (PGI2)]
[8]
  Effectiveness in the treatment of skin ulcers: effective in the treatment of skin ulcers

## CN[C@@H](C)[C@H](O)c1ccccc1 [ephedrine]
[9]
  Maximum flux through skin: 250-400 μg/cm^2 per hr
